In doi:10.1101/2023.12.06.570349v1 (biorxiv, 2023):
Read-outs that look alike come from different tables or passages of the source.

Tests used:
[1] = molecular target: T1, H3R-415 (Homo sapiens, UniProt Q9Y5N1); test: cell-based; design: species or system HEK293-EPAC stably expressing H3R isoform; conditions: for Emax: HEK293-EPAC stably expressing H3R isoform, read-out: H3R-415 α
[2] = molecular target: T2, H3R-365 (Homo sapiens, UniProt Q9Y5N1); test: cell-based; design: species or system HEK293-EPAC stably expressing H3R isoform; conditions: for Emax: HEK293-EPAC stably expressing H3R isoform, read-out: H3R-365 α
[3] = molecular target: T3, H3R-445 (Homo sapiens, UniProt Q9Y5N1); test: cell-based; design: species or system HEK293-EPAC stably expressing H3R isoform; conditions: for Emax: HEK293-EPAC stably expressing H3R isoform, read-out: H3R-445 α
[4] = molecular target: T4, H3R-373 (Homo sapiens, UniProt Q9Y5N1, INS445KMKKKTCL)
[5] = molecular target: T1, H3R-415; test: cell-based; design: species or system HEK293-EPAC stably expressing H3R isoform
[6] = molecular target: T4, H3R-373; design: species or system HEK293-EPAC stably expressing H3R isoform; conditions: inverse agonism, constitutive signaling; antagonist
[7] = molecular target: T5, H3R-413 (Homo sapiens, UniProt Q9Y5N1, DEL274-305); test: biochemical
[8] = molecular target: T2, H3R-365; test: cell-based; design: species or system HEK293-EPAC stably expressing H3R isoform
[9] = molecular target: T2, H3R-365; test: cell-based; conditions: HEK293-EPAC stably expressing H3R isoform, read-out: H3R-365 α
[10] = molecular target: T1, H3R-415; test: cell-based; conditions: HEK293-EPAC stably expressing H3R isoform, read-out: H3R-415 α
[11] = molecular target: T3, H3R-445; test: cell-based; conditions: HEK293-EPAC stably expressing H3R isoform, read-out: H3R-445 α
[12] = molecular target: T6, H3R-453 (Homo sapiens, UniProt Q9Y5N1); test: cell-based; conditions: HEK293-EPAC stably expressing H3R isoform, read-out: H3R-453 α
[13] = molecular target: T1, H3R-415; test: cell-based; design: species or system HEK293-EPAC stably expressing H3R isoform; conditions: for Emax: HEK293-EPAC stably expressing H3R isoform, read-out: H3R-415 α; for H3R-415 α: relative to histamine, agonist
[14] = molecular target: T6, H3R-453; test: cell-based; design: species or system HEK293-EPAC stably expressing H3R isoform; conditions: for Emax: HEK293-EPAC stably expressing H3R isoform, read-out: H3R-453 α; for H3R-453 α: relative to histamine, agonist
[15] = molecular target: T5, H3R-413; test: cell-based; design: species or system HEK293-EPAC stably expressing H3R isoform
[16] = molecular target: T4, H3R-373; test: cell-based; design: species or system HEK293-EPAC stably expressing H3R isoform; conditions: for Emax: HEK293-EPAC stably expressing H3R isoform, read-out: H3R-373 α; for H3R-373 α: relative to histamine, agonist
[17] = molecular target: T2, H3R-365; test: cell-based; design: species or system HEK293-EPAC stably expressing H3R isoform; conditions: for Emax: HEK293-EPAC stably expressing H3R isoform, read-out: H3R-365 α; for H3R-365 α: relative to histamine, agonist
[18] = molecular target: T3, H3R-445; test: cell-based; design: species or system HEK293-EPAC stably expressing H3R isoform; conditions: for Emax: HEK293-EPAC stably expressing H3R isoform, read-out: H3R-445 α; for H3R-445 α: relative to histamine, agonist
[19] = molecular target: T5, H3R-413; test: cell-based; design: species or system HEK293-EPAC stably expressing H3R isoform; conditions: for Emax: HEK293-EPAC stably expressing H3R isoform, read-out: H3R-413 α; for H3R-413 α: relative to histamine, agonist
[20] = molecular target: T3, H3R-445; test: cell-based; design: species or system HEK293-EPAC stably expressing H3R isoform
[21] = molecular target: T6, H3R-453; design: species or system HEK293-EPAC stably expressing H3R isoform; conditions: agonist
[22] = molecular target: T4, H3R-373; design: species or system HEK293-EPAC stably expressing H3R isoform; conditions: agonist
[23] = molecular target: T1, H3R-415; test: cell-based; design: species or system HEK293-EPAC stably expressing H3R isoform; remark: listed apart in the source
[24] = molecular target: T3, H3R-445; test: cell-based; design: species or system HEK293-EPAC stably expressing H3R isoform; remark: listed apart in the source
[25] = molecular target: T1, H3R-415; test: biochemical
[26] = molecular target: T3, H3R-445; test: biochemical
[27] = molecular target: T2, H3R-365; test: biochemical
[28] = inverse agonism, pitolisant = -1, antagonist

Row | SMILES | Ki [4] | Ki [7] | Emax [13] | Emax [14] | EC50 [15] | Emax [16] | Emax [17] | Emax [18] | Emax [19] | H3R-373 pEC50 [22] | other results
1 | S=C(NC1CCCCC1)N1CCC(c2c[nH]cn2)CC1 [thioperamide, N-cyclohexyl-4-(3H-imidazol-4-yl)piperidine-1-carbothioamide] |  |  |  |  |  |  |  |  |  |  | Emax [1]: -80 ± 80%; Emax [2]: -100%; Emax [3]: -90 ± 10%
2 | C[C@@H](N)Cc1cnc[nH]1 [RAMH, (2R)-1-(3H-imidazol-4-yl)propan-2-amine] |  |  |  |  |  |  |  |  |  |  | Emax [9]: 100 ± 20%; Emax [10]: 110 ± 40%; Emax [11]: 100%; Emax [12]: 140 ± 10%
3 | N=C(N)SCCc1cnc[nH]1 [imetit, 2-(3H-imidazol-4-yl)ethylsulfanylmethanimidamide] | 0.126 nM | 0.631 nM | 70% | 100 ± 30% | 0.316 nM | 80 ± 30% | 110 ± 20% | 90 ± 10% | 100% |  | 
4 | C[C@@H]1CCCN1CCc1cc2cc(-c3ccc(C#N)cc3)ccc2o1 [ABT-239, 4-[2-[2-[(2R)-2-methylpyrrolidin-1-yl]ethyl]-1-benzofuran-5-yl]benzonitrile] |  |  |  |  |  |  |  |  |  |  | Emax [1]: -50 ± 30%; Emax [2]: -110%; Emax [3]: -100 ± 20%
5 | CN1CCC(Cc2c[nH]cn2)CC1 [Methimepip] |  |  |  |  | 0.631 nM |  |  |  |  |  | H3R-415 α [13]: 0.8 ± 0.1%; H3R-453 α [14]: 1.1 ± 0.2%; H3R-373 α [16]: 0.8 ± 0.1%; H3R-365 α [17]: 0.8 ± 0.4%; H3R-445 α [18]: 1.0 ± 0.2%; H3R-413 α [19]: 1.0 ± 0.1%
6 | c1ccc(COCCCc2c[nH]cn2)cc1 [proxyfan, 4-[3-(phenylmethoxy)propyl]-3H-imidazole] | 1 nM | 5.01 nM | 70 ± 10% | 100 ± 20% | 31.6 nM | 80 ± 10% | 100 ± 10% | 90 ± 10% | 90 ± 10% | 8.0 ± 0.0 M | EC50 [20]: 7.94 nM; H3R-453 pEC50 [21]: 7.2 ± 0.4 M; EC50 [23]: 15.8 nM
7 | c1cc(Cc2cnc[nH]2)ccn1 [immethridine, 4-(3H-imidazol-4-ylmethyl)pyridine] | 0.1 nM | 0.398 nM | 70 ± 10% | 110 ± 40% |  | 90 ± 10% | 110 ± 50% | 90 ± 20% | 100 ± 10% | 10.1 ± 0.7 M | 
8 | N=C(NCc1ccc(Cl)cc1)SCCCc1c[nH]cn1 [clobenpropit, N’-[(4-chlorophenyl)methyl]-1-[3-(3H-imidazol-4-yl)propylsulfanyl]methanimidamide] |  |  |  |  |  |  |  |  |  |  | Emax [1]: -80%; Emax [2]: -80 ± 10%; Emax [3]: -100 ± 30%
9 | c1nc(CC2CCNCC2)c[nH]1 [Immepip] |  |  |  |  | 0.2 nM |  |  |  |  | 10.1 ± 0.2 M | H3R-415 α [13]: 0.9 ± 0.1%; H3R-453 α [14]: 0.9 ± 0.1%; H3R-373 α [16]: 0.8 ± 0.2%; H3R-365 α [17]: 1.1 ± 0.1%; H3R-445 α [18]: 1.0 ± 0.0%; H3R-413 α [19]: 1.0 ± 0.0%
10 | O=C(c1ccc(CN2CCOCC2)cc1)N1CCN(C2CC2)CC1 [bavisant, (4-Cyclopropyl-piperazin-1-yl)-(4-morpholin-4-ylmethyl-phenyl)-methanone] | 79.4 nM | 2.51 nM |  |  |  |  |  |  |  |  | H3R-415 α [1, 28]: -0.9 ± 0.0%; EC50 [5]: 0.794 nM; H3R-365 α [2, 28]: -1.0 ± 0.0%; EC50 [24]: 1 nM; H3R-445 α [3, 28]: -1.0 ± 0,3%; EC50 [8]: 3.98 nM
11 | CN(C)CCCCCc1c[nH]cn1 [dimethyl-impentamine, 5-(3H-imidazol-4-yl)-N,N-dimethylpentan-1-amine] | 20 nM | 31.6 nM | 40 ± 10% |  | 79.4 nM | 70 ± 10% | 100 ± 20% | 60 ± 20% | 50 ± 20% | 7.9 ± 0.4 M | Ki [25]: 31.6 nM; Ki [26]: 25.1 nM; Ki [27]: 20 nM
12 | NCCCCc1c[nH]cn1 [imbutamine, 4-(3H-imidazol-4-yl)butan-1-amine] | 0.398 nM | 1.58 nM | 80 ± 10% | 120 ± 30% |  | 80 ± 10% | 90 ± 30% | 100 ± 10% | 90% | 9.5 ± 0.4 M | 

More lines, main results first:

Row | Ki [4] | Ki [7] | Emax [13] | Emax [14] | EC50 [15] | Emax [16] | Emax [17] | Emax [18] | Emax [19] | H3R-373 pEC50 [22] | SMILES | other results
13 | 126 nM | 5.01 nM |  |  |  |  |  |  |  |  | CCNC(=O)C1CC(F)(c2ccc(CN3CCCC3)c(F)c2)C1 (stereo not shown) [PF-3654746, N-ethyl-3-fluoro-3-[3-fluoro-4-(pyrrolidin-1-ylmethyl)phenyl]cyclobutane-1-carboxamide] | Emax [1]: -110 ± 30%; EC50 [5]: 0.501 nM; Emax [2]: -100 ± 10%; H3R-373 pEC50 [6]: 9.1 ± 0.4 M; Emax [3]: -120 ± 40%; EC50 [8]: 1 nM
14 | 0.398 nM | 2 nM | 50 ± 10% | 90 ± 30% |  | 60 ± 20% | 70 ± 20% | 90% | 80 ± 20% |  | CCCNC1CN(c2ccnc(N)n2)C1 [VUF16839, 4-(3-(Propylamino)azetidin-1-yl)pyrimidin-2-amine] | EC50 [20]: 1 nM; H3R-453 pEC50 [21]: 8.0 ± 0.1 M
15 | 0.316 nM | 1.26 nM | 50 ± 20% | 90 ± 40% |  | 70 ± 30% | 70 ± 20% | 80 ± 20% | 80 ± 10% | 9.0 ± 0.8 M | N=C(N)SCCCc1cnc[nH]1 [VUF8328, 3-(1H-imidazol-5-yl)propyl carbamimidothioate] | Ki [25]: 1.58 nM; Ki [26]: 1.26 nM; Ki [27]: 0.794 nM
